System: 565726-208-R1-J5-PDC complex spheroids, growth inhibition
Assay: Anticancer human tumor 565726-208-R1-J5-PDC patient-derived pancreatic adenocarcinoma cell line growth inhibition [RAS]
Conditions: for IC50: curve of first compound; for viability, T/C: stronger effect = lower value
Outline: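 Agents were tested in combination matrices in half-log decrements from a top concentration at or near clinical Cmax (10 microM if undetermined). Targets were multi-cell spheroids of tumour lines plus HUVEC and MSC stromal cells.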
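Also: spheroids exposed to compounds for seven days before readout.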
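For viability, T/C in this document: 100% = DMSO vehicle control viability.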

## CC(Nc1ccc2c(c1)OCCn1cc(N3C(=O)OCC3C(F)F)nc1-2)C(N)=O (centres undefined) + C#Cc1c(F)ccc2cc(O)cc(-c3ncc4c(N5CC6CCC(C5)N6)nc(OCC56CCCN5CC(F)C6)nc4c3F)c12
Second compound 0.0316 µM
  IC50: > 10 µM
Second compound 0.1 µM
  IC50: > 10 µM
Second compound 0.316 µM
  IC50: > 10 µM
Second compound 1 µM
  IC50: > 10 µM
Second compound 3.16 µM
  IC50: 0.487 µM
Second compound 10 µM
  IC50: 0.527 µM
Second compound 0.0316 µM, first compound 0.0316 µM
  viability, T/C: 73.2%
Second compound 0.0316 µM, first compound 0.1 µM
  viability, T/C: 101%
Second compound 0.0316 µM, first compound 0.316 µM
  viability, T/C: 86.5%
Second compound 0.0316 µM, first compound 1 µM
  viability, T/C: 60.4%
Second compound 0.0316 µM, first compound 3.16 µM
  viability, T/C: 92.9%
Second compound 0.0316 µM, first compound 10 µM
  viability, T/C: 70.2%
Second compound 0.1 µM, first compound 0.0316 µM
  viability, T/C: 87.5%
Second compound 0.1 µM, first compound 0.1 µM
  viability, T/C: 102%
Second compound 0.1 µM, first compound 0.316 µM
  viability, T/C: 73.9%
Second compound 0.1 µM, first compound 1 µM
  viability, T/C: 53.5%
Second compound 0.1 µM, first compound 3.16 µM
  viability, T/C: 81.2%
Second compound 0.1 µM, first compound 10 µM
  viability, T/C: 65.5%
Second compound 0.316 µM, first compound 0.0316 µM
  viability, T/C: 105%
Second compound 0.316 µM, first compound 0.1 µM
  viability, T/C: 109%
Second compound 0.316 µM, first compound 0.316 µM
  viability, T/C: 72.9%
Second compound 0.316 µM, first compound 1 µM
  viability, T/C: 55.1%
Second compound 0.316 µM, first compound 3.16 µM
  viability, T/C: 69.2%
Second compound 0.316 µM, first compound 10 µM
  viability, T/C: 62.5%
Second compound 1 µM, first compound 0.0316 µM
  viability, T/C: 114%
Second compound 1 µM, first compound 0.1 µM
  viability, T/C: 102%
Second compound 1 µM, first compound 0.316 µM
  viability, T/C: 57.2%
Second compound 1 µM, first compound 1 µM
  viability, T/C: 60.2%
Second compound 1 µM, first compound 3.16 µM
  viability, T/C: 47.4%
Second compound 1 µM, first compound 10 µM
  viability, T/C: 54.6%
Second compound 3.16 µM, first compound 0.0316 µM
  viability, T/C: 90.5%
Second compound 3.16 µM, first compound 0.1 µM
  viability, T/C: 80%
Second compound 3.16 µM, first compound 0.316 µM
  viability, T/C: 56.4%
Second compound 3.16 µM, first compound 1 µM
  viability, T/C: 38.7%
Second compound 3.16 µM, first compound 3.16 µM
  viability, T/C: 35.6%
Second compound 3.16 µM, first compound 10 µM
  viability, T/C: 45.3%
Second compound 10 µM, first compound 0.0316 µM
  viability, T/C: 60.8%
Second compound 10 µM, first compound 0.1 µM
  viability, T/C: 68.9%
Second compound 10 µM, first compound 0.316 µM
  viability, T/C: 51.1%
Second compound 10 µM, first compound 1 µM
  viability, T/C: 46.7%
Second compound 10 µM, first compound 3.16 µM
  viability, T/C: 30.7%
Second compound 10 µM, first compound 10 µM
  viability, T/C: 34.7%

## CC(C)NCC(C(=O)N1CCN(c2ncnc3c2C(C)CC3O)CC1)c1ccc(Cl)cc1 (centres undefined) + CCn1c(-c2cccnc2C(C)OC)c2c3cc(ccc31)N1CCOC(CC(NC(=O)C(C(C)C)N(C)C(=O)C3(F)CCN(C(=O)C#CC(C)(C)N(C)C)CC3)C(=O)N3CCCC(N3)C(=O)OCC(C)(C)C2)C1
Second compound 0.000949 µM
  IC50: > 10 µM
Second compound 0.003 µM
  IC50: > 10 µM
Second compound 0.00949 µM
  IC50: > 10 µM
Second compound 0.03 µM
  IC50: > 10 µM
Second compound 0.0949 µM
  IC50: > 10 µM
Second compound 0.3 µM
  IC50: 7.56 µM
Second compound 0.000949 µM, first compound 0.0316 µM
  viability, T/C: 106%
Second compound 0.000949 µM, first compound 0.1 µM
  viability, T/C: 94.1%
Second compound 0.000949 µM, first compound 0.316 µM
  viability, T/C: 97.6%
Second compound 0.000949 µM, first compound 1 µM
  viability, T/C: 85.1%
Second compound 0.000949 µM, first compound 3.16 µM
  viability, T/C: 74%
Second compound 0.000949 µM, first compound 10 µM
  viability, T/C: 56.6%
Second compound 0.003 µM, first compound 0.0316 µM
  viability, T/C: 105%
Second compound 0.003 µM, first compound 0.1 µM
  viability, T/C: 99.2%
Second compound 0.003 µM, first compound 0.316 µM
  viability, T/C: 105%
Second compound 0.003 µM, first compound 1 µM
  viability, T/C: 94.7%
Second compound 0.003 µM, first compound 3.16 µM
  viability, T/C: 84.2%
Second compound 0.003 µM, first compound 10 µM
  viability, T/C: 59.4%
Second compound 0.00949 µM, first compound 0.0316 µM
  viability, T/C: 96%
Second compound 0.00949 µM, first compound 0.1 µM
  viability, T/C: 104%
Second compound 0.00949 µM, first compound 0.316 µM
  viability, T/C: 94.3%
Second compound 0.00949 µM, first compound 1 µM
  viability, T/C: 99.8%
Second compound 0.00949 µM, first compound 3.16 µM
  viability, T/C: 88.1%
Second compound 0.00949 µM, first compound 10 µM
  viability, T/C: 57.1%
Second compound 0.03 µM, first compound 0.0316 µM
  viability, T/C: 101%
Second compound 0.03 µM, first compound 0.1 µM
  viability, T/C: 95.5%
Second compound 0.03 µM, first compound 0.316 µM
  viability, T/C: 106%
Second compound 0.03 µM, first compound 1 µM
  viability, T/C: 89.4%
Second compound 0.03 µM, first compound 3.16 µM
  viability, T/C: 84.4%
Second compound 0.03 µM, first compound 10 µM
  viability, T/C: 56.5%
Second compound 0.0949 µM, first compound 0.0316 µM
  viability, T/C: 93.5%
Second compound 0.0949 µM, first compound 0.1 µM
  viability, T/C: 98.8%
Second compound 0.0949 µM, first compound 0.316 µM
  viability, T/C: 96.9%
Second compound 0.0949 µM, first compound 1 µM
  viability, T/C: 86.5%
Second compound 0.0949 µM, first compound 3.16 µM
  viability, T/C: 85.5%
Second compound 0.0949 µM, first compound 10 µM
  viability, T/C: 57.7%
Second compound 0.3 µM, first compound 0.0316 µM
  viability, T/C: 95.2%
Second compound 0.3 µM, first compound 0.1 µM
  viability, T/C: 87%
Second compound 0.3 µM, first compound 0.316 µM
  viability, T/C: 85.8%
Second compound 0.3 µM, first compound 1 µM
  viability, T/C: 80.8%
Second compound 0.3 µM, first compound 3.16 µM
  viability, T/C: 70.7%
Second compound 0.3 µM, first compound 10 µM
  viability, T/C: 43.2%

— PubChem BioAssay AID2060899 (Molecular Pharmacology Branch, DTP, NCI, 2025)
